Source: ChEMBL document CHEMBL5380808, “Design, Synthesis, and Biological Activity of Marinacarboline Analogues as STAT3 Pathway Inhibitors for Docetaxel-Resistant Triple-Negative Breast Cancer” (J Med Chem, 2023)
Active and inactive are the calls of the source. The calls are words filed in the database; no cut-off is given here.

Legend:
MDA-MB-231 [1] = assay: Antiproliferative activity against human MDA-MB-231 cells assessed as reduction in cell viability incubated for 72 hrs by sulforhodamine B assay; format: functional, cell-based; details: MDA-MB-231, 72 h
[2] = Selectivity index, ratio of IC50 for cytotoxicity against human MRC5 cells to IC50 for antiproliferative activity against human MDA-MB-231 cells; format: toxicity, cell-based; details: MRC5 cells and MDA-MB-231 cells, read-out: Ratio IC50
[3] = Synergistic antiproliferative activity against docetaxel-resistant human MDA-MB-231-DTR cells assessed as combination index at 2 uM incubated for 72 hrs in presence of 1 uM of docetaxel by Chou-Talalay method; format: functional
[4] = Synergistic antiproliferative activity against docetaxel-resistant human MDA-MB-231-DTR cells assessed as combination index at 4 uM incubated for 72 hrs in presence of 1 uM of docetaxel by Chou-Talalay method; format: functional
[5] = Induction of cell cycle arrest in docetaxel-resistant human MDA-MB-231-DTR cells assessed as accumulation at subG1 phase at 2.5 uM incubated for 36 hrs by PI staining based flow cytometry analysis (reference value: 0.52%); format: functional
[6] = Induction of cell cycle arrest in docetaxel-resistant human MDA-MB-231-DTR cells assessed as accumulation at subG1 phase at 10 uM incubated for 36 hrs by PI staining based flow cytometry analysis (reference value: 0.52%); format: functional
[7] = Induction of cell cycle arrest in docetaxel-resistant human MDA-MB-231-DTR cells assessed as accumulation at G0/G1 phase at 2.5 uM incubated for 36 hrs by PI staining based flow cytometry analysis (reference value: 74.77%); format: functional
[8] = Induction of cell cycle arrest in docetaxel-resistant human MDA-MB-231-DTR cells assessed as accumulation at G0/G1 phase at 5 uM incubated for 36 hrs by PI staining based flow cytometry analysis (reference value: 74.77%); format: functional
[9] = Induction of cell cycle arrest in docetaxel-resistant human MDA-MB-231-DTR cells assessed as accumulation at G0/G1 phase at 10 uM incubated for 36 hrs by PI staining based flow cytometry analysis (reference value: 74.77%); format: functional
[10] = Induction of cell cycle arrest in docetaxel-resistant human MDA-MB-231-DTR cells assessed as accumulation at S phase at 10 uM incubated for 36 hrs by PI staining based flow cytometry analysis (reference value: 11.57%); format: functional
[11] = Induction of cell cycle arrest in docetaxel-resistant human MDA-MB-231-DTR cells assessed as accumulation at G2/M phase at 5 uM incubated for 36 hrs by PI staining based flow cytometry analysis (reference value: 13.16%); format: functional
[12] = Induction of cell cycle arrest in docetaxel-resistant human MDA-MB-231-DTR cells assessed as accumulation at G2/M phase at 10 uM incubated for 36 hrs by PI staining based flow cytometry analysis (reference value: 13.16%); format: functional
MDA-MB-231 [13] = assay: Induction of cell cycle arrest at G2/M phase in docetaxel-resistant human MDA-MB-231-DTR cells assessed as upregulation of Chk1 phosphorylation at S345 at 2.5 to 10 uM incubated for 36 hrs by Western blot analysis; format: functional, cell-based; details: dose 2.5-10 µM
MDA-MB-231 [14] = assay: Induction of cell cycle arrest at G2/M phase in docetaxel-resistant human MDA-MB-231-DTR cells assessed as downregulation of c-Myc expression level at 2.5 to 10 uM incubated for 36 hrs by Western blot analysis; format: functional, cell-based; details: dose 2.5-10 µM
MDA-MB-231 [15] = assay: Induction of cell cycle arrest at G2/M phase in docetaxel-resistant human MDA-MB-231-DTR cells assessed as downregulation of Cdc25C expression level at 2.5 to 10 uM incubated for 36 hrs by Western blot analysis; format: functional, cell-based; details: dose 2.5-10 µM
[16] = Induction of cell cycle arrest in docetaxel-resistant human MDA-MB-231-DTR cells assessed as accumulation at subG1 phase at 5 uM incubated for 12 hrs by PI staining based flow cytometry analysis (reference value: 0.41%); format: functional
[17] = Induction of cell cycle arrest in docetaxel-resistant human MDA-MB-231-DTR cells assessed as accumulation at G0/G1 phase at 5 uM incubated for 24 hrs by PI staining based flow cytometry analysis (reference value: 75.49%); format: functional
[18] = Induction of cell cycle arrest in docetaxel-resistant human MDA-MB-231-DTR cells assessed as accumulation at G0/G1 phase at 5 uM incubated for 48 hrs by PI staining based flow cytometry analysis (reference value: 75.49%); format: functional
[19] = Induction of cell cycle arrest in docetaxel-resistant human MDA-MB-231-DTR cells assessed as accumulation at S phase at 5 uM incubated for 12 hrs by PI staining based flow cytometry analysis (reference value: 10.56%); format: functional
[20] = Induction of cell cycle arrest in docetaxel-resistant human MDA-MB-231-DTR cells assessed as accumulation at S phase at 5 uM incubated for 48 hrs by PI staining based flow cytometry analysis (reference value: 10.56%); format: functional
[21] = Induction of cell cycle arrest in docetaxel-resistant human MDA-MB-231-DTR cells assessed as accumulation at G2/M phase at 5 uM incubated for 12 hrs by PI staining based flow cytometry analysis (reference value: 13.54%); format: functional
[22] = Induction of apoptosis in docetaxel-resistant human MDA-MB-231-DTR cells assessed as increase in total cell death at 5 uM incubated for 48 hrs by Annexin V-FITC and PI staining based flow cytometry; format: functional
[23] = Induction of apoptosis in docetaxel-resistant human MDA-MB-231-DTR cells assessed as increase in total cell death at 10 uM incubated for 48 hrs by Annexin V-FITC and PI staining based flow cytometry; format: functional
MDA-MB-231 [24] = assay: Induction of apoptosis in docetaxel-resistant human MDA-MB-231-DTR cells assessed as upregulation of cleaved-caspase-3 expression level at 2.5 to 10 uM incubated for 48 hrs by Western blot analysis; format: functional, cell-based; details: dose 2.5-10 µM
MDA-MB-231 [25] = assay: Induction of apoptosis in docetaxel-resistant human MDA-MB-231-DTR cells assessed as downregulation of survivin expression level at 2.5 to 10 uM incubated for 48 hrs by Western blot analysis; format: functional, cell-based; details: dose 2.5-10 µM
MDA-MB-231 [26] = assay: Inhibition of cell invasion in docetaxel-resistant human MDA-MB-231-DTR cells at 3 to 6 uM incubated for 24 hrs by transwell invasion assay; format: functional, cell-based; details: dose 3-6 µM
MDA-MB-231 [27] = assay: Inhibition of cell migration in docetaxel-resistant human MDA-MB-231-DTR cells assessed as downregulation of N-cadherin expression level at 3 to 6 uM incubated for 24 hrs by Western blot analysis; format: functional, cell-based; details: dose 3-6 µM
MDA-MB-231 [28] = assay: Antitumor activity against docetaxel-resistant human MDA-MB-231-DTR cells xenografted in BALB/c mouse assessed as tumor growth inhibition at 10 mg/kg, ip daily for 12 days; format: functional, organism-based; details: time 12.0 day
[29] = Toxicity in BALB/c mouse xenografted with docetaxel-resistant human MDA-MB-231-DTR cells assessed as body weight change at 5 mg/kg, ip daily for 12 days; format: organism-based; details: in vivo, 288 h, time 12 day
MDA-MB-231 [30] = assay: Antitumor activity against docetaxel-resistant human MDA-MB-231-DTR cells xenografted in BALB/c mouse assessed as downregulation of Ki67 level in tumor tissue at 10 mg/kg, ip daily for 12 days by Immunohistochemical analysis; format: functional, organism-based; details: time 12.0 day

O=C(NCCc1c[nH]c2ccccc12)c1cc2c([nH]c3ccccc32)c(C(=O)c2ccc(Br)cc2)n1
IC50 (MDA-MB-231 [1]): 3.11 µM
selectivity ratio [2]: 10.7
CI [3]: 0.26
CI [4]: 0.38
Activity [5]: 0.57%
Activity [6]: 2.51%
Activity [7]: 62.36%
Activity [8]: 51.37%
Activity [9]: 51.09%
Activity [10]: 18.42%
Activity [11]: 24.58%
Activity [12]: 29.72%
Activity (MDA-MB-231 [13]): Active
Activity (MDA-MB-231 [14]): Active
Activity (MDA-MB-231 [15]): Active
Activity [16]: 0.82%
Activity [17]: 82.18%
Activity [18]: 48.08%
Activity [19]: 12.14%
Activity [20]: 12.49%
Activity [21]: 17.91%
Activity [22]: 18.79%
Activity [23]: 61.85%
Activity (MDA-MB-231 [24]): Active
Activity (MDA-MB-231 [25]): Active
inhibition (MDA-MB-231 [26]): Dose-Dependent Effect
inhibition (MDA-MB-231 [27]): Active
Activity (MDA-MB-231 [28]): Active
Activity [29]: Non-Toxic
Activity (MDA-MB-231 [30]): Active
